Molecules are shown by their SMILES.

The values below come from patent publication US12636274B2, “Pharmaceutical compositions and methods for systemic treatment of solid tumors” (7 HILLS INTERESTS LLC, priority 2014, dated 2026).

One assay deals with α5β1/Fibronectin (Homo sapiens, UniProt P05556+P08648). The experiment in a line: Integrin activation, adhesion α5β1/Fibronectin. The assay is classed as cell-based. As to conditions: 50% serum; n = 3; read-out: Integrin Selectivity EC50 α5β1/Fibronectin. An excerpt:
(§1) Activating all integrins is necessary for firm endothelial cell adhesion for extravasation.

In another assay the target is T1, α4β7/MAcDAM-1 (Homo sapiens, UniProt P13612+P26010).
T1 sequence (P13612 34-1032): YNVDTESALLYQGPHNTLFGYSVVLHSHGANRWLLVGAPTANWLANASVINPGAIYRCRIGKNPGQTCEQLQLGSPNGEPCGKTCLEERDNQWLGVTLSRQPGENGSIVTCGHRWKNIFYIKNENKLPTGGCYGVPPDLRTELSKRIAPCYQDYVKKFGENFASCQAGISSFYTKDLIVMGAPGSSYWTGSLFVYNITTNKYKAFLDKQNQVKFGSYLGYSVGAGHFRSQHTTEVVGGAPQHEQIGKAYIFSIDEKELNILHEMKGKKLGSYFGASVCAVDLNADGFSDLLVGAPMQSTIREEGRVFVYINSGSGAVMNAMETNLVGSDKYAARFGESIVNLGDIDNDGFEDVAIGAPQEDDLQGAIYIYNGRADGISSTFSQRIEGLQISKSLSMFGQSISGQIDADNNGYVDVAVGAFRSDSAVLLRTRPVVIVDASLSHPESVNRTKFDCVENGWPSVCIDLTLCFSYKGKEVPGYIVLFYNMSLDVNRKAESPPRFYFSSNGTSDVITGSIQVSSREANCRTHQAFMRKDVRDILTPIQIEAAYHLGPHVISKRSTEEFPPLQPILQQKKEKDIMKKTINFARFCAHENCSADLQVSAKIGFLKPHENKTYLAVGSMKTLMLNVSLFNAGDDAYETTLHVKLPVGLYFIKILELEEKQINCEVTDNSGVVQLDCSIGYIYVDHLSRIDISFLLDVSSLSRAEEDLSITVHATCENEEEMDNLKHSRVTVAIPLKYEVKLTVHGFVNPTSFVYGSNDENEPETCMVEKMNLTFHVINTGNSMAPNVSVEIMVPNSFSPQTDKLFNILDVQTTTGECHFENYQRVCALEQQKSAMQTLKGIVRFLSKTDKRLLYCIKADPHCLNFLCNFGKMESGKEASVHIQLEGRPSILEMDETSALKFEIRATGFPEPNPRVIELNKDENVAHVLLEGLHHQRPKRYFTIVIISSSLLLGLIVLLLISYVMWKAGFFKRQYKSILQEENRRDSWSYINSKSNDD
T1 sequence (P26010 20-798): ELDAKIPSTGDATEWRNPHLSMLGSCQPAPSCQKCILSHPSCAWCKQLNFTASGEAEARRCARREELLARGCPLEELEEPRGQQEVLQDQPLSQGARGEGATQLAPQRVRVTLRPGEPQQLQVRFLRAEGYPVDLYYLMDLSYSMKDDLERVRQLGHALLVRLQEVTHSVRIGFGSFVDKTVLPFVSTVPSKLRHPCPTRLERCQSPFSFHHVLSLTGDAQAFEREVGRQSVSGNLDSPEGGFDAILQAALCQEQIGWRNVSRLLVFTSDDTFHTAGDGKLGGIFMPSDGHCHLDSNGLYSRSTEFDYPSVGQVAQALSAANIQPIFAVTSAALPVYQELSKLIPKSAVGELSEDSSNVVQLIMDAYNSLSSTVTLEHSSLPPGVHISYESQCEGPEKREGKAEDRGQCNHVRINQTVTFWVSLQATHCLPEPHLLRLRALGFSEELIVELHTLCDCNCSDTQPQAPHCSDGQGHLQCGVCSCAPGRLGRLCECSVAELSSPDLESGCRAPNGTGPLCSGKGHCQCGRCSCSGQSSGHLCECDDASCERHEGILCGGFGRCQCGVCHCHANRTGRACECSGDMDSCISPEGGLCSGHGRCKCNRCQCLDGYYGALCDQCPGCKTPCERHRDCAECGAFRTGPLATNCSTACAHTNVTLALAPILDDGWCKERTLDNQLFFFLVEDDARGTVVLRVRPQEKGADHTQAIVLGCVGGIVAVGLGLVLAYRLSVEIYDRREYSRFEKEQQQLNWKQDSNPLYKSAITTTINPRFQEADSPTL
Briefly: Integrin activation, adhesion α4β7/MAcDAM-1. The assay is classed as cell-based. The following applies: 50% serum; n = 3; read-out: Integrin Selectivity EC50 α4β7/MAcDAM-1.
Source text: as §1

α5β1/Fibronectin, sequence (P08648 42-894 limits assumed): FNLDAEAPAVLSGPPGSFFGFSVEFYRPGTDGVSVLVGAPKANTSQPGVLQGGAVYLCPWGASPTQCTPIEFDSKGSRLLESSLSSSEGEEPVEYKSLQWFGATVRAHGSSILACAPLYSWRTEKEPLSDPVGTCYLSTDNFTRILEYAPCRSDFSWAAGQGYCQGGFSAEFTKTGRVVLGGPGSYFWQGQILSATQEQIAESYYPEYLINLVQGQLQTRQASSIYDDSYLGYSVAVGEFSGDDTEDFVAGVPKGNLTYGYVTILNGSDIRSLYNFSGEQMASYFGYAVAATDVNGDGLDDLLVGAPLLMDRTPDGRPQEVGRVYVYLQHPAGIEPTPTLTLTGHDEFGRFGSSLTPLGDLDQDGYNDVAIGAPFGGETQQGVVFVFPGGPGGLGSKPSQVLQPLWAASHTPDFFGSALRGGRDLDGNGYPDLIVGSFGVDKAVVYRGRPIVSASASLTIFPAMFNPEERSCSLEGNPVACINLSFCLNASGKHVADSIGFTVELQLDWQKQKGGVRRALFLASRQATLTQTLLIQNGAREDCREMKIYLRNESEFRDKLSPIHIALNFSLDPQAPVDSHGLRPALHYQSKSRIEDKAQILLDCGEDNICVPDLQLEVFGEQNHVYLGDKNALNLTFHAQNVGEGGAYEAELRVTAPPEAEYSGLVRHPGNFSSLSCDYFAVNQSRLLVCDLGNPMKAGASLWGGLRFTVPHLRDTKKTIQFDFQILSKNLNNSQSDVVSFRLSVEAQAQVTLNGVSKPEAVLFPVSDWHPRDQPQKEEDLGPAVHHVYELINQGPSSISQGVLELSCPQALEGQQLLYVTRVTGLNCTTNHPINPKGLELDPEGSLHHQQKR
α5β1/Fibronectin, sequence (P08648 895-1049 limits assumed): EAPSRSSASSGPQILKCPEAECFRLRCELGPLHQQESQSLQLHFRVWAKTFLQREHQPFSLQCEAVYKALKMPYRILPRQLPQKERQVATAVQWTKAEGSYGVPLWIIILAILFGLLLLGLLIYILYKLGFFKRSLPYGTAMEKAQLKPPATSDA
α5β1/Fibronectin, sequence (P05556 21-798): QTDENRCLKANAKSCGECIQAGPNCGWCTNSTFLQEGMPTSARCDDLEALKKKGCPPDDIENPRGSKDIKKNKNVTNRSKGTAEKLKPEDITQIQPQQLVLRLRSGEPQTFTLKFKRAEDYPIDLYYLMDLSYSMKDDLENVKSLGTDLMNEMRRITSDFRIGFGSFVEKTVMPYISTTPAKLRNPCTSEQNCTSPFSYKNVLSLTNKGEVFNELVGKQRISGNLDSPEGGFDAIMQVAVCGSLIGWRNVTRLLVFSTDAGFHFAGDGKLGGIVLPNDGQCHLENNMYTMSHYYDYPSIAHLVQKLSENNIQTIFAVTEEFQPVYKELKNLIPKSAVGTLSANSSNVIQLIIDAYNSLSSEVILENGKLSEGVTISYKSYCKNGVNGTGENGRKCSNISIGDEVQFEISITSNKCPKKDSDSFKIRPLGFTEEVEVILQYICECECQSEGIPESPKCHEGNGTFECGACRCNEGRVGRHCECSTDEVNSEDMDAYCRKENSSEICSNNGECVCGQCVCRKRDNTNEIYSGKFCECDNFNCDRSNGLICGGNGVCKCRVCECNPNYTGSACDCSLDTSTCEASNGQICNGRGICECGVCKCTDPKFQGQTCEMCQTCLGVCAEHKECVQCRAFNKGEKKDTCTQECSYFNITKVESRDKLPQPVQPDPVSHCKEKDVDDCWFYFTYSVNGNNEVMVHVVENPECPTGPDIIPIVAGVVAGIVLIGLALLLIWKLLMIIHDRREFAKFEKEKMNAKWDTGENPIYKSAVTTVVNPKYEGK

Turning to `O=C(OCCOCCOCCOC(=O)N(Cc1cccs1)Cc1cccs1)N(Cc1cccs1)Cc1cccs1` [Compound 1, 3-oxo-1-(2-thienyl)-2-(2-thienylmethyl)-4,7,10-trioxa-2-azadodecan-12-yl bis(2-thienylmethyl)carbamate], the EC50 at α5β1/Fibronectin is 7.7 ± 2.3 µM; at α4β7/MAcDAM-1 it was 10 ± 2.1 µM.
